SMILES strings stand for the structures. pIC50: −log10 of the molar value.

One assay has as its system HCT116 cells. The experiment in a line: In vitro cytotoxicity measured by the cell colony formation assay. It is filed as cell-based. Conditions: HCT116 cells, 72 h drug incubation, colonies counted after 7 days; ID50 = drug concentration producing 50% inhibition of colony formation; read-out: IN VITRO ID 50 (nm) HCT116. In short, it runs like this:
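Colony-forming survival was scored 7 days after a 72 h, 37 °C compound exposure followed by washout into fresh medium.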
`CC(=O)O[C@@]12CO[C@@H]1C[C@H](OC(=O)Nc1ccc(F)c(F)c1)[C@@]1(C)C(=O)[C@H](O)C3=C(C)[C@@H](OC(=O)[C@H](O)[C@@H](NC(=O)C=C(C)C)c4ccco4)C[C@@](O)([C@@H](OC(=O)c4ccccc4)C12)C3(C)C` (stereo partly drawn) [Compound 5522]: the pIC50 was more than 9.00.
For the molecule `CC(=O)O[C@@]12CO[C@@H]1C[C@H](OC(=O)Nc1ccccc1)[C@@]1(C)C(=O)[C@H](O)C3=C(C)[C@@H](OC(=O)[C@H](O)[C@@H](NC(=O)C=C(C)C)c4ccco4)C[C@@](O)([C@@H](OC(=O)c4ccccc4)C12)C3(C)C` (stereo partly drawn) [Compound 5535, N-Debenzoyl-N-isobutenyl-3′-desphenyl-3′-(2-furyl)-7-phenylcarbamoyl taxol], the pIC50 was more than 9.00.
On the same count and under the same terms, for `CCNC(=O)O[C@H]1C[C@H]2OC[C@@]2(OC(C)=O)C2[C@H](OC(=O)c3ccccc3)[C@]3(O)C[C@H](OC(=O)[C@H](O)[C@@H](NC(=O)C=C(C)C)c4ccco4)C(C)=C([C@@H](O)C(=O)[C@@]21C)C3(C)C` (stereo partly drawn) [Compound 5588] the value was more than 9.00.
Still for that read-out and setting: for `CCCNC(=O)O[C@H]1C[C@H]2OC[C@@]2(OC(C)=O)C2[C@H](OC(=O)c3ccccc3)[C@]3(O)C[C@H](OC(=O)[C@H](O)[C@@H](NC(=O)OC(C)(C)C)c4ccco4)C(C)=C([C@@H](O)C(=O)[C@@]21C)C3(C)C` (stereo partly drawn) [Compound 5665] the value was less than 7.30.
Take `C/C=C/C(=O)N[C@@H](c1ccco1)[C@@H](O)C(=O)O[C@H]1C[C@@]2(O)[C@@H](OC(=O)c3ccccc3)C3[C@](C)(C(=O)[C@H](O)C(=C1C)C2(C)C)[C@@H](OC(=O)Nc1ccccc1)C[C@H]1OC[C@@]31OC(C)=O` (stereo partly drawn) [Compound 5757]: the pIC50 was more than 8.00.
Same read-out and setting: the result for `CC=CC(=O)NC(c1ccco1)C(O)C(=O)OC1CC2(O)C(OC(=O)c3ccccc3)C3C4(OC(C)=O)COC4CC(OC(=O)Nc4ccc(F)c(F)c4)C3(C)C(=O)C(O)C(=C1C)C2(C)C` (stereo not drawn) [Compound 5800] reads more than 8.00.
Still for that read-out and setting: the result for `C/C=C/C(=O)N[C@@H](c1ccco1)[C@@H](O)C(=O)O[C@H]1C[C@@]2(O)[C@@H](OC(=O)c3ccccc3)C3[C@](C)(C(=O)[C@H](O)C(=C1C)C2(C)C)[C@@H](OC(=O)NCC)C[C@H]1OC[C@@]31OC(C)=O` (stereo partly drawn) [Compound 5822] reads more than 8.00.
Same read-out and setting: for `C/C=C/C(=O)N[C@@H](c1ccco1)[C@@H](O)C(=O)O[C@H]1C[C@@]2(O)[C@@H](OC(=O)c3ccccc3)C3[C@](C)(C(=O)[C@H](O)C(=C1C)C2(C)C)[C@@H](OC(=O)NC1CCCCC1)C[C@H]1OC[C@@]31OC(C)=O` (stereo partly drawn) [Compound 5895] the value was more than 9.00.

Still in this assay, the particulars now being: HCT116 cells, 72 h incubation with drug, colonies counted after 7 days; ID50 = drug concentration producing 50% inhibition of colony formation; read-out: IN VITRO ID 50 (nm) HCT116.
As to `CCOC(=O)O[C@H]1C[C@H]2OC[C@@]2(OC(C)=O)C2[C@H](OC(=O)c3ccccc3)[C@]3(O)C[C@H](OC(=O)[C@H](O)[C@@H](NC(=O)C=C(C)C)c4ccco4)C(C)=C([C@@H](O)C(=O)[C@@]21C)C3(C)C` (stereo partly drawn) [Compound 6151], the pIC50 was more than 9.00.

The assay is the same for the next values; noted with them: HCT116 cells, colony formation, 72 h incubation with drug, colonies counted after 7 days; ID50 = drug concentration producing 50% inhibition of colony formation; read-out: IN VITRO ID 50 (nm) HCT116.
As for `C/C=C/C(=O)N[C@@H](c1ccco1)[C@@H](O)C(=O)O[C@H]1C[C@@]2(O)[C@@H](OC(=O)c3ccccc3)C3[C@](C)(C(=O)[C@H](OC(=O)Nc4ccc(F)c(F)c4)C(=C1C)C2(C)C)[C@@H](O)C[C@H]1OC[C@@]31OC(C)=O` (stereo partly drawn) [Compound 6015], the pIC50 is more than 8.00.
On to `C/C=C/C(=O)N[C@@H](c1ccco1)[C@@H](O)C(=O)O[C@H]1C[C@@]2(O)[C@@H](OC(=O)c3ccccc3)C3[C@](C)(C(=O)[C@H](OC(=O)Nc4ccccc4)C(=C1C)C2(C)C)[C@@H](O)C[C@H]1OC[C@@]31OC(C)=O` (stereo partly drawn) [Compound 6024], for which the pIC50 is more than 9.00.
The same measure, in the same setting: the result for `C/C=C/C(=O)N[C@@H](c1ccco1)[C@@H](O)C(=O)O[C@H]1C[C@@]2(O)[C@@H](OC(=O)c3ccccc3)C3[C@](C)(C(=O)[C@H](OC(=O)NCC)C(=C1C)C2(C)C)[C@@H](O)C[C@H]1OC[C@@]31OC(C)=O` (stereo partly drawn) [Compound 6072] reads more than 9.00.

The assay is the same for the next values; noted with them: HCT116 colony formation; 72 h drug incubation, colonies counted after 7 days; Example 5, C-7 ester/C-10 hydroxy taxanes; read-out: IN VITRO ID 50 (nm) HCT116.
On to `CC(=O)O[C@@]12CO[C@@H]1C[C@H](OC(=O)C(C)C)[C@@]1(C)C(=O)[C@H](O)C3=C(C)[C@@H](OC(=O)[C@H](O)[C@@H](NC(=O)OC=C(C)C)c4ccco4)C[C@@](O)([C@@H](OC(=O)c4ccccc4)C12)C3(C)C` (stereo partly drawn) [Compound 5989], for which the pIC50 is more than 8.00.
Consider `CC(=O)O[C@@]12CO[C@@H]1C[C@H](OC(=O)C=C(C)C)[C@@]1(C)C(=O)[C@H](O)C3=C(C)[C@@H](OC(=O)[C@H](O)[C@@H](NC(=O)OCC(C)C)c4ccco4)C[C@@](O)([C@@H](OC(=O)c4ccccc4)C12)C3(C)C` (stereo partly drawn) [Compound 6040], for which the pIC50 was more than 8.00.
Same read-out and setting: the result for `CC(=O)O[C@@]12CO[C@@H]1C[C@H](OC(=O)C(C)C)[C@@]1(C)C(=O)[C@H](O)C3=C(C)[C@@H](OC(=O)[C@H](O)[C@@H](NC(=O)C(C)C)c4ccco4)C[C@@](O)([C@@H](OC(=O)c4ccccc4)C12)C3(C)C` (stereo partly drawn) [Compound 6121] reads more than 8.00.
On to `CC(=O)O[C@@]12CO[C@@H]1C[C@H](OC(=O)CC(C)C)[C@@]1(C)C(=O)[C@H](O)C3=C(C)[C@@H](OC(=O)[C@H](O)[C@@H](NC(=O)OC=C(C)C)c4ccco4)C[C@@](O)([C@@H](OC(=O)c4ccccc4)C12)C3(C)C` (stereo partly drawn) [Compound 6131], for which the pIC50 is more than 9.00.
The same measure, in the same setting: the result for `CCCCC(=O)O[C@H]1C[C@H]2OC[C@@]2(OC(C)=O)C2[C@H](OC(=O)c3ccccc3)[C@]3(O)C[C@H](OC(=O)[C@H](O)[C@@H](NC(=O)OC=C(C)C)c4ccco4)C(C)=C([C@@H](O)C(=O)[C@@]21C)C3(C)C` (stereo partly drawn) [Compound 6141] reads more than 9.00; that for `CCC(=O)O[C@H]1C[C@H]2OC[C@@]2(OC(C)=O)C2[C@H](OC(=O)c3ccccc3)[C@]3(O)C[C@H](OC(=O)[C@H](O)[C@@H](NC(=O)OC=C(C)C)c4ccco4)C(C)=C([C@@H](O)C(=O)[C@@]21C)C3(C)C` (stereo partly drawn) [Compound 6171], more than 8.00.
Regarding `CCCC(=O)O[C@H]1C[C@H]2OC[C@@]2(OC(C)=O)C2[C@H](OC(=O)c3ccccc3)[C@]3(O)C[C@H](OC(=O)[C@H](O)[C@@H](NC(=O)OC=C(C)C)c4ccco4)C(C)=C([C@@H](O)C(=O)[C@@]21C)C3(C)C` (stereo partly drawn) [Compound 6181], the pIC50 is more than 9.00.
The same measure, in the same setting: for `C/C=C/C(=O)N[C@@H](c1ccco1)[C@@H](O)C(=O)O[C@H]1C[C@@]2(O)[C@@H](OC(=O)c3ccccc3)C3[C@](C)(C(=O)[C@H](O)C(=C1C)C2(C)C)[C@@H](OC(=O)C(C)C)C[C@H]1OC[C@@]31OC(C)=O` (stereo partly drawn) [Compound 6202] the value was more than 9.00.

Still in this assay, the particulars now being: HCT116 colony formation; 72 h drug incubation, colonies counted after 7 days; Example 10, C-10 ester/C-7 hydroxy taxanes; read-out: IN VITRO ID 50 (nm) HCT116.
For the molecule `CCC(=O)O[C@H]1C(=O)[C@@]2(C)C([C@H](OC(=O)c3ccccc3)[C@]3(O)C[C@H](OC(=O)[C@H](O)[C@@H](NC(=O)OC(C)(C)C)c4ccoc4)C(C)=C1C3(C)C)[C@]1(OC(C)=O)CO[C@@H]1C[C@@H]2O` (stereo partly drawn) [Compound 5495], the pIC50 was more than 9.00.

Still in this assay, the particulars now being: HCT116 colony formation; 72 h drug incubation, colonies counted after 7 days; Example 15, C-7 substituted acetate/C-10 hydroxy taxanes; read-out: IN VITRO ID 50 (nm) HCT116.
For `CC(=O)OCC(=O)O[C@H]1C[C@H]2OC[C@@]2(OC(C)=O)C2[C@H](OC(=O)c3ccccc3)[C@]3(O)C[C@H](OC(=O)[C@H](O)[C@@H](NC(=O)C=C(C)C)c4ccco4)C(C)=C([C@@H](O)C(=O)[C@@]21C)C3(C)C` (stereo partly drawn) [Compound 5544], the pIC50 is more than 9.00.
Still for that read-out and setting: the result for `CC(=O)O[C@@]12CO[C@@H]1C[C@H](OC(=O)COc1ccccc1)[C@@]1(C)C(=O)[C@H](O)C3=C(C)[C@@H](OC(=O)[C@H](O)[C@@H](NC(=O)C=C(C)C)c4ccco4)C[C@@](O)([C@@H](OC(=O)c4ccccc4)C12)C3(C)C` (stereo partly drawn) [Compound 5555] reads more than 9.00; that for `CSCC(=O)O[C@H]1C[C@H]2OC[C@@]2(OC(C)=O)C2[C@H](OC(=O)c3ccccc3)[C@]3(O)C[C@H](OC(=O)[C@H](O)[C@@H](NC(=O)OC(C)(C)C)c4ccco4)C(C)=C([C@@H](O)C(=O)[C@@]21C)C3(C)C` (stereo partly drawn) [Compound 5600], more than 9.00.
Turning to `CC(=O)O[C@@]12CO[C@@H]1C[C@H](OC(=O)COc1ccccc1)[C@@]1(C)C(=O)[C@H](O)C3=C(C)[C@@H](OC(=O)[C@H](O)[C@@H](NC(=O)OC(C)(C)C)c4ccco4)C[C@@](O)([C@@H](OC(=O)c4ccccc4)C12)C3(C)C` (stereo partly drawn) [Compound 5616], the pIC50 is more than 9.00.
As to `CC(=O)OCC(=O)O[C@H]1C[C@H]2OC[C@@]2(OC(C)=O)C2[C@H](OC(=O)c3ccccc3)[C@]3(O)C[C@H](OC(=O)[C@H](O)[C@@H](NC(=O)OC(C)(C)C)c4ccco4)C(C)=C([C@@H](O)C(=O)[C@@]21C)C3(C)C` (stereo partly drawn) [Compound 5622], the pIC50 is more than 9.00.
As for `C/C=C/C(=O)N[C@@H](c1ccco1)[C@@H](O)C(=O)O[C@H]1C[C@@]2(O)[C@@H](OC(=O)c3ccccc3)C3[C@](C)(C(=O)[C@H](O)C(=C1C)C2(C)C)[C@@H](OC(=O)COc1ccccc1)C[C@H]1OC[C@@]31OC(C)=O` (stereo partly drawn) [Compound 5811], the pIC50 was more than 9.00.
Same read-out and setting: the result for `C/C=C/C(=O)N[C@@H](c1ccco1)[C@@H](O)C(=O)O[C@H]1C[C@@]2(O)[C@@H](OC(=O)c3ccccc3)C3[C@](C)(C(=O)[C@H](O)C(=C1C)C2(C)C)[C@@H](OC(=O)COC)C[C@H]1OC[C@@]31OC(C)=O` (stereo partly drawn) [Compound 5835] reads more than 9.00.

Still in this assay, the particulars now being: HCT116 colony formation; 72 h drug incubation, colonies counted after 7 days; Example 20, C-10 substituted acetate/C-7 hydroxy taxanes; read-out: IN VITRO ID 50 (nm) HCT116.
Regarding `C/C=C/C(=O)N[C@@H](c1ccco1)[C@@H](O)C(=O)O[C@H]1C[C@@]2(O)[C@@H](OC(=O)c3ccccc3)C3[C@](C)(C(=O)[C@H](OC(=O)COC)C(=C1C)C2(C)C)[C@@H](O)C[C@H]1OC[C@@]31OC(C)=O` (stereo partly drawn) [Compound 6066], the pIC50 was more than 9.00.
The same measure, in the same setting: the result for `C/C=C/C(=O)N[C@@H](c1ccco1)[C@@H](O)C(=O)O[C@H]1C[C@@]2(O)[C@@H](OC(=O)c3ccccc3)C3[C@](C)(C(=O)[C@H](OC(=O)COc4ccccc4)C(=C1C)C2(C)C)[C@@H](O)C[C@H]1OC[C@@]31OC(C)=O` (stereo partly drawn) [Compound 6111] reads more than 9.00.
